Source: patent US10220033B2, “Substituted benzoxazepine for cancer therapy” (University of Cape Town, priority 2014, dated 2019)
Where two headings read alike, the source gives them in different places.

Columns and labels:
[1] = tested on: CaSki cervical cancer cell line; experiment: MTT assay for cell viability, IC50 determination; format: cell-based; conditions: Homo sapiens, Ca-Ski, read-out: IC50
Experimental: (§1) Cells were plated in 96-well plates and treated with varying concentrations of a test compound for 48 hours, after which MTT dye, 3-(4,5-dimethylthiazol-2-yl)-2,5-diphenyltetrazolium bromide (Sigma), was added, and crystals solubilised 4 hours later using Solubilisation Reagent (10% SLS in 0.01 M HCl). Absorbencies were measured at 595 nm the following day using a BioTek microplate spectrophotometer (Winooski, Vt., USA) and IC50 curves were generated using GraphPad Prism.

[2] = tested on: FG0 normal skin fibroblasts (non-cancer); experiment: MTT assay for cell viability, IC50 determination; format: cell-based; conditions: Skin fibroblast, 48 hours
Experimental: as §1

[3] = tested on: HeLa cervical cancer cell line; experiment: MTT assay for cell viability, IC50 determination; format: cell-based; conditions: Homo sapiens, HeLa, HeLa, read-out: IC50
Experimental: as §1

[4] = tested on: cancer cell lines; experiment: MTT cell viability, summary statements over panels of cancer cell lines; format: cell-based; conditions: CaSki and HeLa (Tables 2 and 3); read-out: IC50 values (cancer cell-killing effects)
Experimental: as §1

[5] = tested on: p65 nuclear import (Kpnβ1 cargo protein); experiment: Percentage of nuclear and cytoplasmic p65 (FIG. 4); format: cell-based
[6] = tested on: PARP cleavage in CaSki cells; experiment: PARP cleavage analysis by Western Blot; format: cell-based; conditions: IC50 and twice the IC50 (FIG. 5), varying concentrations 12 hours (FIG. 26)
Experimental: CaSki cells were treated with varying concentrations of Compound A for 12 hours, following which cells and cell floaters were harvested using RIPA buffer (10 mM Tris-Cl, pH 7.4, 150 mM NaCl, 1% sodium deoxycholate, 0.1% SDS, 1% Triton X-100, 1× complete protease inhibitor cocktail (Roche, Mannheim, Germany)) and Western Blot analysis performed, using a rabbit anti-Parp1/2 (H-250) antibody (sc-7150).

[7] = tested on: NFAT transcriptional activity in NFAT-transfected HeLa cells; experiment: NFAT luciferase reporter assay; format: cell-based; conditions: stimulated with TPA and ionomycin (FIGS. 16-20)
Experimental: To assay for NFAT luciferase activity, 30 000 HeLa cells were plated per well in 24-well plates, and transfected with 50 ng GFP-NFAT plasmid (Addgene plasmid #24219, gift of Jerry Crabtree (Beals C R, Clipstone N A, Ho S N, Crabtree G R. Nuclear localization of NF-ATc by a calcineurin-dependent, cyclosporin-sensitive intramolecular interaction. Genes Dev 1997 Apr. 1; 11(7):824-34)), 50 ng NFAT-luciferase (Addgene plasmid #10959, gift of Toren Finkel (Ichida M, Finkel T. Ras regulates NFAT3 activity in cardiac myocytes. J Biol Chem 2001 Feb. 2; 276(5):3524-30)), and 5 ng pRL-TK, using 0.4 μl Genecellin™ Transfection Reagent (Celtic Molecular Diagnostics, South Africa). The NFAT-luciferase reporter plasmid contains three tandem repeats of a 30 bp fragment of the IL-2 promoter known to bind NFAT. The following day cells were treated with 10 or 15 μM Compound A and after an overnight incubation, stimulated with 100 nM TPA (Sigma) and 1.3 μM Ionomycin (Santa Cruz Biotechnology, Santa Cruz, Calif., USA) for 5 hours, following which luciferase activity was measured.
An assay for nuclear NFAT following ionomycin and Compound A treatment was carried out, using an NFAT-luciferase reporter that is activated by nuclear NFAT. The phorbol ester TPA was used to co-stimulate NFAT, as it has been shown previously that TPA and ionomycin elicit synergistic stimulation of NFAT luciferase activity (Northrop J P, Ullman K S, Crabtree G R. Characterization of the nuclear and cytoplasmic components of the lymphoid-specific nuclear factor of activated T cells (NF-AT) complex. J Biol Chem 1993 Feb. 5; 268(4):2917-23).

[8] = tested on: HeLa cancer cells and FG0 non-cancer cells; experiment: Cell proliferation monitored using the MTT assay (FIGS. 6 and 7); format: cell-based; conditions: increasing concentrations; HeLa and FG0 (FIGS. 6 and 7)
[9] = tested on: WHCO5 oesophageal cancer cell line; experiment: MTT assay for cell viability, IC50 determination; format: cell-based, human; conditions: Homo sapiens, compound in salt form
Experimental: as §1

[10] = MTT assay for cell viability, IC50 determination; format: cell-based; conditions: Homo sapiens, MCF-12A; MCF12A; compound in salt form
Experimental: as §1

[11] = tested on: DMB normal skin fibroblasts (non-cancer); experiment: MTT assay for cell viability, IC50 determination; format: cell-based; conditions: Skin fibroblast; DMB; compound in salt form
Experimental: as §1

[12] = tested on: EPC2 (EPC2-hTERT normal immortalised oesophageal epithelial cells); experiment: MTT assay for cell viability, IC50 determination; format: cell-based; conditions: Homo sapiens, compound in salt form
Experimental: as §1

[13] = tested on: KYSE150 oesophageal cancer cell line; experiment: MTT assay for cell viability, IC50 determination; format: cell-based; conditions: Homo sapiens, KYSE-150; Kyse150; compound in salt form
Experimental: as §1

[14] = tested on: MCF7 breast cancer cell line; experiment: MTT assay for cell viability, IC50 determination; format: cell-based; conditions: Homo sapiens, compound in salt form
Experimental: as §1

[15] = tested on: MDA-MB-231 breast cancer cell line; experiment: MTT assay for cell viability, IC50 determination; format: cell-based; conditions: Homo sapiens, compound in salt form
Experimental: as §1

[16] = tested on: SVWI38 transformed cell line; experiment: MTT assay for cell viability, IC50 determination; format: cell-based; conditions: SVWI38; compound in salt form
Experimental: as §1

[17] = tested on: WI38 non-cancer cell line; experiment: MTT assay for cell viability, IC50 determination; format: cell-based; conditions: Homo sapiens, WI-38; WI38; compound in salt form
Experimental: as §1

| IC50 ([1]; 48 h, MTT) [µM] | IC50 ([3]; 48 h, 48 hours, MTT) [µM] | IC50 [9] [µM] | IC50 ([1]; compound in salt form) [µM] | IC50 ([3]; compound in salt form) [µM] | IC50 [13] [µM] | IC50 [14] [µM] | IC50 [15] [µM] | Compound | IC50 [2] [µM] | IC50 [4] [µM] | nuclear import of Kpnβ1 cargo protein (percentage of nuclear p65 relative to cytoplasmic p65) [5] | PARP cleavage as an indicator of apoptosis [6] | NFAT activation (NFAT-luciferase reporter) [7] | cell proliferation [8] | IC50 [10] [µM] | IC50 [11] [µM] | IC50 [12] [µM] | IC50 [16] [µM] | IC50 [17] [µM] |
| --- | --- | --- | --- | --- | --- | --- | --- | --- | --- | --- | --- | --- | --- | --- | --- | --- | --- | --- | --- |
| 34.1 | 19.9 | – | – | – | – | – | – | CNC(=O)[C@@H]1C[C@H](NCc2ccc(OC)c3ccccc23)CN1Cc1ccccc1 [Compound III, (2S,4S)-1-benzyl-4-{[(4-methoxynaphthalen-1-yl)methyl]amino}-N-methylpyrrolidine-2-carboxamide] | 44.9 | < 50 | inhibit the nuclear import of Kpnβ1 cargo protein | induce cancer cell death via apoptosis | significantly diminished NFAT activation | inhibit cell proliferation | – | – | – | – | – |
| 11.4 | 14.4 | – | – | – | – | – | – | Cc1cccc(CN2CCOc3c(cc(-c4ccc(C)s4)cc3OCC3CCCN(C)C3)C2)n1 (stereo not shown) [Compound II, 9-[(1-methylpiperidin-3-yl)methoxy]-4-[(6-methylpyridin-2-yl)methyl]-7-(5-methylthiophen-2-yl)-3,5-dihydro-2H-1,4-benzoxazepine] | 17.2 | < 50 | inhibit the nuclear import of Kpnβ1 cargo protein | induce cancer cell death via apoptosis | significantly diminished NFAT activation | inhibit cell proliferation | – | – | – | – | – |
| 26.6 | – | 22.4 | 26.6 | 12.3 | 9.08 | 50.2 | 10.4 | Cc1cccc(N[C@@H](c2ccc(N(C)C)cc2)c2ccc3ccc(C)nc3c2O)n1 [Compound IX, 7-[(4-dimethylaminophenyl)-[(6-methyl-2-pyridyl)amino]methyl]-2-methyl-quinolin-8-ol] | – | – | – | – | – | – | 27.8 | 40.9 | 5.78 | 15.3 | 20.8 |
| 39.5 | – | 40.1 | 39.5 | 53.6 | 98.4 | 44.5 | 33 | Cc1ccc(OC[C@@H](O)CNCc2ccc3c(c2)OCO3)cc1C [Compound XIII, 1-(benzo[1,3]dioxol-5-ylmethylamino)-3-(3,4-dimethylphenoxy)-propan-2-ol] | – | – | – | – | – | – | 49.3 | 93 | 34.6 | 42.1 | 36.2 |
